{
  "source": "patent US20190336496A1",
  "about": "“SELECTIVE BCL-2 INHIBITORS IN COMBINATION WITH AN ANTI-PD-1 OR AN ANTI-PD-L1 ANTIBODY FOR THE TREATMENT OF CANCERS” (AbbVie Inc., priority 2018, published 2019)",
  "assay_in_all_cases": "Venetoclax cell killing (CellTiter-Glo)",
  "format_in_all_cases": "cell-based",
  "key": {"NCI-H1993": {"tested_on": "NCI-H1993", "conditions": "Homo sapiens, NCI-H1993, 72 h; Lung; 10% FBS; 3 days", "experimental": "(§1) Solid tumor cell lines were obtained from American Type Culture Collection (ATCC, Manassas, Va.) or the National Cancer Institute (NCI) and cultured in humidified incubators at 37° C. (5% CO2) in appropriate media (specified by supplier) supplemented with 10% fetal bovine serum (FBS) or 10% human serum (HS). 24 hours after plating into 96-well or 384-well tissue culture plates, venetoclax was added to cells at various concentrations (typically 0.010 to 10 μM in half-log increments) to perform concentration-response assessments of cell killing. After 1 to 5 days of culture in the presence of venetoclax, cell viability was assessed using CellTiter-Glo® reagent (Promega). IC50 values were determined by non-linear regression analysis of the concentration response data (Table 5 and Table 6)."}, "MDA-MB-468": {"tested_on": "MDA-MB-468", "conditions": "Homo sapiens, MDA-MB-468, 48 h; Breast Cancer; 10% FBS; 2 days", "experimental": "as §1"}, "A431": {"tested_on": "A431", "conditions": "Homo sapiens, A-431, 120 h; Epidermoid carcinoma (skin); 10% FBS; 5 days", "experimental": "as §1"}, "NCI-H510A": {"tested_on": "NCI-H510A", "conditions": "Homo sapiens, 24 h, Lung, 10% FBS, 1 day", "experimental": "as §1"}, "NCI-H847": {"tested_on": "NCI-H847", "conditions": "Homo sapiens, 24 h; Lung; 10% FBS; 1 day", "experimental": "as §1"}, "HCC827": {"tested_on": "HCC827", "conditions": "Homo sapiens, HCC827, 72 h; Lung; 10% FBS; 3 days", "experimental": "as §1"}, "RKO": {"tested_on": "RKO", "conditions": "Homo sapiens, 120 h, Colorectal, 10% FBS, 5 days", "experimental": "as §1"}, "NCI-H1836": {"tested_on": "NCI-H1836", "conditions": "Homo sapiens, NCI-H1836, 48 h; Lung; 10% HS; 2 days", "experimental": "as §1"}, "MDA-MB-231": {"tested_on": "MDA-MB-231", "conditions": "Homo sapiens, MDA-MB-231, 72 h; Breast Cancer; 10% FBS; 3 days", "experimental": "as §1"}, "NCI-H1975": {"tested_on": "NCI-H1975", "conditions": "Homo sapiens, NCI-H1975, 72 h; Lung; 10% FBS; 3 days", "experimental": "as §1"}, "A549": {"tested_on": "A549", "conditions": "Homo sapiens, A549, 72 h; Lung; 10% FBS; 3 days", "experimental": "as §1"}, "NCI-H146": {"tested_on": "NCI-H146", "conditions": "Homo sapiens, NCI-H146, 48 h; Lung; 10% HS; 2 days", "experimental": "as §1"}, "FaDu": {"tested_on": "FaDu", "conditions": "Homo sapiens, 120 h, Hypopharyngeal, 10% FBS, 5 days", "experimental": "as §1"}, "COLO-201": {"tested_on": "COLO-201", "conditions": "Homo sapiens, COLO 201, 120 h; Colorectal; 10% FBS; 5 days", "experimental": "as §1"}, "22Rv1": {"tested_on": "22Rv1", "conditions": "Homo sapiens, 22Rv1, 48 h; Prostate; 10% FBS; 2 days", "experimental": "as §1"}, "NCI-H526": {"tested_on": "NCI-H526", "conditions": "Homo sapiens, NCI-H526, 24 h; Lung; 10% FBS; 1 day", "experimental": "as §1"}, "NCI-H460": {"tested_on": "NCI-H460", "conditions": "Homo sapiens, NCI-H460, 72 h; Lung; 10% FBS; 3 days", "experimental": "as §1"}, "SW48": {"tested_on": "SW48", "conditions": "Homo sapiens, SW48, 120 h; Colorectal; 10% FBS; 5 days", "experimental": "as §1"}, "NCI-H209": {"tested_on": "NCI-H209", "conditions": "Homo sapiens, NCI-H209, 24 h; Lung; 10% FBS; 1 day", "experimental": "as §1"}, "SW1463": {"tested_on": "SW1463", "conditions": "Homo sapiens, SW1463, 120 h; Colorectal; 10% FBS; 5 days", "experimental": "as §1"}, "WM-115": {"tested_on": "WM-115", "conditions": "Homo sapiens, WM-115, 120 h; Melanoma; 10% FBS; 5 days", "experimental": "as §1"}, "DLD-1": {"tested_on": "DLD-1", "conditions": "Homo sapiens, DLD-1, 120 h; Colorectal; 10% FBS; 5 days", "experimental": "as §1"}, "NCI-H1417": {"tested_on": "NCI-H1417", "conditions": "Homo sapiens, NCI-H1417, 48 h; Lung; 10% HS; 2 days", "experimental": "as §1"}, "Calu-1": {"tested_on": "Calu-1", "conditions": "Homo sapiens, Calu-1, 72 h; Lung; 10% FBS; 3 days", "experimental": "as §1"}, "NCI-H508": {"tested_on": "NCI-H508", "conditions": "Homo sapiens, NCI-H508, 72 h; Colorectal; 10% FBS; 3 days", "experimental": "as §1"}, "NCI-H1963": {"tested_on": "NCI-H1963", "conditions": "Homo sapiens, NCI-H1963, 24 h; Lung; 10% FBS; 1 day", "experimental": "as §1"}, "NCI-H441": {"tested_on": "NCI-H441", "conditions": "Homo sapiens, NCI-H441, 72 h; Lung; 10% FBS; 3 days", "experimental": "as §1"}, "SW620": {"tested_on": "SW620", "conditions": "Homo sapiens, SW-620, 120 h; Colorectal; 10% FBS; 5 days", "experimental": "as §1"}, "COLO-205": {"tested_on": "COLO-205", "conditions": "Homo sapiens, COLO 205, 120 h; Colorectal; 10% FBS; 5 days", "experimental": "as §1"}, "NCI-H187": {"tested_on": "NCI-H187", "conditions": "Homo sapiens, NCI-H187, 48 h; Lung; 10% HS; 2 days", "experimental": "as §1"}},
  "data": [
    {"smiles": "CC1(C)CCC(CN2CCN(c3ccc(C(=O)NS(=O)(=O)c4ccc(NCC5CCOCC5)c([N+](=O)[O-])c4)c(Oc4cnc5[nH]ccc5c4)c3)CC2)=C(c2ccc(Cl)cc2)C1", "note": "[Compound (I), venetoclax]", "values": [
      {"measurement": "IC50", "setting": "NCI-H1993", "value": 3.83, "unit": "µM"},
      {"measurement": "IC50", "setting": "MDA-MB-468", "value": "> 10", "unit": "µM"},
      {"measurement": "IC50", "setting": "A431", "value": 4.35, "unit": "µM"},
      {"measurement": "IC50", "setting": "NCI-H510A", "value": 1.97, "unit": "µM"},
      {"measurement": "IC50", "setting": "NCI-H847", "value": "> 10", "unit": "µM"},
      {"measurement": "IC50", "setting": "HCC827", "value": "> 10", "unit": "µM"},
      {"measurement": "IC50", "setting": "RKO", "value": "> 10", "unit": "µM"},
      {"measurement": "IC50", "setting": "NCI-H1836", "value": "> 5", "unit": "µM"},
      {"measurement": "IC50", "setting": "MDA-MB-231", "value": 4.83, "unit": "µM"},
      {"measurement": "IC50", "setting": "NCI-H1975", "value": "> 10", "unit": "µM"},
      {"measurement": "IC50", "setting": "A549", "value": 3.19, "unit": "µM"},
      {"measurement": "IC50", "setting": "NCI-H146", "value": 4.2, "unit": "µM"},
      {"measurement": "IC50", "setting": "FaDu", "value": "> 10", "unit": "µM"},
      {"measurement": "IC50", "setting": "COLO-201", "value": 9.78, "unit": "µM"},
      {"measurement": "IC50", "setting": "22Rv1", "value": "> 10", "unit": "µM"},
      {"measurement": "IC50", "setting": "NCI-H526", "value": "> 10", "unit": "µM"},
      {"measurement": "IC50", "setting": "NCI-H460", "value": "> 10", "unit": "µM"},
      {"measurement": "IC50", "setting": "SW48", "value": "> 10", "unit": "µM"},
      {"measurement": "IC50", "setting": "NCI-H209", "value": "> 10", "unit": "µM"},
      {"measurement": "IC50", "setting": "SW1463", "value": "> 10", "unit": "µM"},
      {"measurement": "IC50", "setting": "WM-115", "value": 4.96, "unit": "µM"},
      {"measurement": "IC50", "setting": "DLD-1", "value": "> 10", "unit": "µM"},
      {"measurement": "IC50", "setting": "NCI-H1417", "value": "> 5", "unit": "µM"},
      {"measurement": "IC50", "setting": "Calu-1", "value": "> 10", "unit": "µM"},
      {"measurement": "IC50", "setting": "NCI-H508", "value": 4.45, "unit": "µM"},
      {"measurement": "IC50", "setting": "NCI-H1963", "value": 4.59, "unit": "µM"},
      {"measurement": "IC50", "setting": "NCI-H441", "value": "> 10", "unit": "µM"},
      {"measurement": "IC50", "setting": "SW620", "value": "> 10", "unit": "µM"},
      {"measurement": "IC50", "setting": "COLO-205", "value": "> 10", "unit": "µM"},
      {"measurement": "IC50", "setting": "NCI-H187", "value": 3.04, "unit": "µM"}
    ]}
  ]
}
